Data from patent US8741852B2, “Peptides having antimicrobial activity” (Universiti Malaya, priority 2012, dated 2014).
Read-outs that look alike come from different tables or passages of the source. No end group written: not given here.

Experiments:
[1] = test system: bacterial pathogens; assay: Spectrum of antibacterial activity (summary in words); type: cell-based; details: against Streptococcus pneumoniae, Acinetobacter baumannii, Staphylococcus aureus, methicillin-resistant Staphylococcus aureus, Escherichia coli, Citrobacter spp.
[2] = test system: Streptococcus pneumoniae; assay: MIC by broth microdilution against all 60 pneumococcal isolates (overall); type: cell-based
Source text: (§1) The antimicrobial peptides are thereafter tested using broth microdilution assay 5×10^5 cfu/ml against a total of 60 pneumococcal isolates (20 isolates for each penicillin-susceptible, -intermediate, and -resistant pneumococci) to determine their minimum inhibitory concentration (MIC).

[3] = test system: K. pneumoniae; type: cell-based, Klebsiella pneumoniae
Experimental: (§2) Apart from Streptococcus pneumonia, the antimicrobial peptides are also tested for antimicrobial activity against eight common bacterial pathogens of both gram-types as shown in Table 2. […] Testing against the gram-negative Acinetobacter baumannii (31.25 μg/ml) and Citrobacter spp.

[4] = test system: eight common bacterial pathogens of both gram-types; type: cell-based
Experimental: as §2

[5] = test system: Citrobacter spp.; type: cell-based
Experimental: as §2

[6] = test system: E. cloacae
Experimental: as §2

[7] = test system: E. coli; type: cell-based, Escherichia coli
Experimental: as §2

[8] = test system: S. aureus; type: cell-based, Staphylococcus aureus
Experimental: as §2

[9] = test system: A. baumannii; type: cell-based, Acinetobacter baumannii
Experimental: as §2

[10] = test system: penicillin-resistant pneumococci
Source text: as §1

[11] = test system: penicilin-intermediate pneumococci
Source text: as §1

[12] = test system: penicilin-susceptible pneumococci
Source text: as §1

[13] = test system: P. aeruginosa; type: cell-based, Pseudomonas aeruginosa
Experimental: as §2

[14] = Pseudomonas aeruginosa, Enterococcus cloacae
[15] = Pseudomonas aeruginosa, Enterococcus cloacae, Klebsiella pneumoniae

| Substance | antimicrobial activity [1, 14] | Overall EP [2] [%] | MIC [3] [µg/mL] | MIC [6] [µg/mL] | MIC [8] [µg/mL] | EP (effective percentage, isolates inhibited within the effective range) [10] [%] | ER (effective range of minimum inhibitory concentration) [10] [µg/mL] | EP (effective percentage, isolates inhibited within the effective range) [11] [%] | ER (effective range of minimum inhibitory concentration) [11] [µg/mL] | EP (effective percentage, isolates inhibited within the effective range) [12] [%] | ER (effective range of minimum inhibitory concentration) [12] [µg/mL] | antimicrobial activity [1, 15] | MIC [5] [µg/mL] | also measured |
| --- | --- | --- | --- | --- | --- | --- | --- | --- | --- | --- | --- | --- | --- | --- |
| GLFDIWKKWRWRR-NH2 (C-terminus assumed) [SEQ ID NO:4, Gly-Leu-Phe-Asp-Ile-Trp-Lys-Lys-Trp-Arg-Trp-Arg-Arg] | have antimicrobial activity | 100 |  |  |  |  |  |  |  |  |  |  |  |  |
| GLFDKWAWWRWRR-NH2 (C-terminus assumed) [SEQ ID NO:1, Gly-Leu-Phe-Asp-Lys-Trp-Ala-Trp-Trp-Arg-Trp-Arg-Arg] | have antimicrobial activity | 100 |  |  |  |  |  |  |  |  |  |  |  |  |
| GLFDIWAWWRWRR-NH2 (C-terminus assumed) [SEQ ID NO:2, Gly-Leu-Phe-Asp-Ile-Trp-Ala-Trp-Trp-Arg-Trp-Arg-Arg] |  | 100 | >250 | >250 | 31.25 | 100 | 15.63 to 250 | 100 | 7.81 to 250 | 100 | 15.63 to 250 |  |  | antimicrobial activity [1]: has antimicrobial activity; activity against the other bacteria ([4]; bacteria of Table 2 other than S. aureus, MRSA, A. baumannii, Citrobacter spp., E. coli): non-active; MIC ([5]; Gram-negative): 62.5 µg/mL; MIC ([7]; Gram-negative): 250 µg/mL; MIC level against Staphylococcus aureus as compared to methicillin-resistant Staphylococcus aureus [8]: two fold lower; MIC ([9]; Gram-negative): 31.25 µg/mL |
| GLFDIWKKLRWRR-NH2 (C-terminus assumed) [SEQ ID NO:5, Gly-Leu-Phe-Asp-Ile-Trp-Lys-Lys-Leu-Arg-Trp-Arg-Arg] |  | 100 | 250 | 125 | 125 | 100 | 31.25 to 125 | 100 | 15.63 to 125 | 100 | 15.63 to 125 | have antimicrobial activity | 31.25 | MIC [13]: 31.25 µg/mL; range of minimum inhibitory concentrations [4]: 31.25 to 125 µg/mL; MIC [7]: 31.25 µg/mL; MIC [9]: 31.25 µg/mL |
| GLFDIWKWWRWRR-NH2 (C-terminus assumed) [SEQ ID NO:3, Gly-Leu-Phe-Asp-Ile-Trp-Lys-Trp-Trp-Arg-Trp-Arg-Arg] |  | 100 | 62.5 | 31.25 |  | 100 | 15.63 to 62.5 | 100 | 7.81 to 250 | 100 | 7.81 to 62.5 | have antimicrobial activity | 15.63 | range of minimum inhibitory concentration [4]: 7.81 to 125 µg/mL |
